Experimental findings from patent US20120201749A1, “NP-1 Antagonists and Their Therapeutic Use” (priority 2009, published 2012) are described below.

In the assay the target is NP-1 (Homo sapiens, UniProt O14786). The experiment in a line: Biotinylated-VEGF-A165 (bt-VEGF-A165) binding to NP-1. The note with it: for inhibition at 3 µM: 3 μM compound, read-out: Screen (% inhibition at 3 μM); for inhibition at 30 µM: read-out: Screen (% inhibition at 30 μM). As for the experimental part: Human prostate carcinoma DU145 cells were cultured in growth medium (RPMI 1640 containing 10% FBS and L-glutamine). DU145 cells were seeded at the density of 2×10^4 cells per well (96-well plates) in 0.1 ml growth medium and transfected with adenovirus vectors containing the full-length open-reading frame of human NP-1. The Ad.NP-1-transfected cells grew for 2 days prior to a binding assay.
Confluent Ad.NP-1-transfected cells in 96-well plates were washed twice with phosphate-buffered saline (PBS). The various concentrations of compounds diluted in binding medium (Dulbecco's modified Eagle's medium, 25 mM HEPES pH 7.3 containing 0.1% BSA) were added, followed by addition of 2 nM of bt-VEGF-A165. After 2 h of incubation at room temperature, the medium was aspirated and washed three times with PBS. The bound bt-VEGF-A165 to NP-1 was detected by streptavidin-horseradish peroxidase conjugates and the enzyme substrate, and measured using a Tecan Genios plate reader at A450 nm with a reference wavelength at A595 nm. Non-specific binding was determined in the presence of 100-fold excess unlabelled VEGF-A165.
The 96-well plates were pre-coated with NP1 protein at 3 μg/ml overnight at 4° C. On the following day, the plates were treated with blocking buffer (PBS containing 1% BSA) and washed three times with wash buffer (PBS containing 0.1% Tween-20). The various concentrations of compounds diluted in PBS containing 1% DMSO were added, followed by addition of 0.25 nM of bt-VEGF-A165. After 2 h of incubation at room temperature, the plates were washed three times with wash buffer. The bound bt-VEGF-A165 to NP-1 was detected by streptavidin-horseradish peroxidase conjugates and the enzyme substrate, and measured using a Tecan Genios plate reader at A450 nm with a reference wavelength at A595 nm. Nonspecific binding was determined in the absence of NP-1 coated wells of the plates.

Each structure is given as a SMILES string. pIC50: −log10 of the molar value.

Chain of NP-1 (O14786 22-923): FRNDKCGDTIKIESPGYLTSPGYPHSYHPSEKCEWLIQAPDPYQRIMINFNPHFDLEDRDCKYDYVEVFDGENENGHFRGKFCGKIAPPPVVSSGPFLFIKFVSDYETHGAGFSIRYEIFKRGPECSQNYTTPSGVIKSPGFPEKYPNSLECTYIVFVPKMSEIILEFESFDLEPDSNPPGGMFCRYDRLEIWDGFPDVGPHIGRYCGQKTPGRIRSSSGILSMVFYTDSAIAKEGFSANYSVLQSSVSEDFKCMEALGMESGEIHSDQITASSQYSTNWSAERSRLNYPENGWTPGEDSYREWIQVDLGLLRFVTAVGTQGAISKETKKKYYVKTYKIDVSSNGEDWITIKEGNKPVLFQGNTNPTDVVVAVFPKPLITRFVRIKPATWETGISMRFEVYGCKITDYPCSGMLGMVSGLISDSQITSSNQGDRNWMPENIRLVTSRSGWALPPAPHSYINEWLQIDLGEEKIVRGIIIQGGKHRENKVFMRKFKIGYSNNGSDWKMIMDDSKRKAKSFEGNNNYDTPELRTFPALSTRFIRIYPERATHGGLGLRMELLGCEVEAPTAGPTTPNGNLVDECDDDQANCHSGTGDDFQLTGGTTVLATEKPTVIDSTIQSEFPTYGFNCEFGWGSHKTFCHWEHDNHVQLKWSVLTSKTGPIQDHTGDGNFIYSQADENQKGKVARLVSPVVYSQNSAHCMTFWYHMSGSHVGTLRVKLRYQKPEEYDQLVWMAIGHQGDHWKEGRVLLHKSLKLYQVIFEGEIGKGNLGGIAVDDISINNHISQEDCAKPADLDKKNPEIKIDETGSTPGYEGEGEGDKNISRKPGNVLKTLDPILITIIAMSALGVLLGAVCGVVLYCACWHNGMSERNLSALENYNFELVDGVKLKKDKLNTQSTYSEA

For the compound `Cc1ccc(NCCCNCc2cccc(-c3cc4c(c(S(=O)(=O)Nc5ccsc5C(=O)N[C@@H](CCCNC(=N)N)C(=O)O)c3)OCC4)c2)nc1` [Compound 44, (S)-5-Guanidino-2-({3-[5-(3-{[3-(5-methyl-pyridin-2-ylamino)-propylamino]-methyl}-phenyl)-2,3-dihydro-benzofuran-7-sulfonylamino]-thiophene-2-carbonyl}-amino)-pentanoic acid], the inhibition at 3 µM was 78%. Regarding `N=C(N)NCCC[C@H](NC(=O)c1sccc1NS(=O)(=O)c1cc(-c2cccc(CN3CCN(CCO)CC3)c2)cc2c1OCC2)C(=O)O` [Compound 55, (S)-5-Guanidino-2-{[3-(5-{3-[4-(2-hydroxy-ethyl)-piperazin-1-ylmethyl]-phenyl}-2,3-dihydro-benzofuran-7-sulfonylamino)-thiophene-2-carbonyl]-amino}-pentanoic acid], the pIC50 was 6.28 and the inhibition at 3 µM was 71%. Take `N=C(N)NCCC[C@H](NC(=O)c1sccc1NS(=O)(=O)c1cccc(NCc2csc(N3CCOCC3)n2)c1)C(=O)O` [Compound 71, (S)-5-guanidino-2-[(3-{3-[(2-morpholin-4-yl-thiazol-4-ylmethyl)-amino]-benzenesulfonylamino}-thiophene-2-carbonyl]-amino]-pentanoic acid]: the inhibition at 3 µM was found to be 53%. For the same compound, the inhibition at 30 µM (30 μM compound) worked out at 91%. For the compound `Cc1ccc(NCCCNCc2ccccc2-c2cc3c(c(S(=O)(=O)Nc4ccsc4C(=O)N[C@@H](CCCNC(=N)N)C(=O)O)c2)OCC3)nc1` [Compound 50, (S)-5-Guanidino-2-({3-[5-(2-{[3-(5-methyl-pyridin-2-ylamino)-propylamino]-methyl}-phenyl)-2,3-dihydro-benzofuran-7-sulfonylamino]-thiophene-2-carbonyl}-amino)-pentanoic acid], the inhibition at 3 µM came to 82%. As for `N=C(N)NCCC[C@H](NC(=O)c1sccc1NS(=O)(=O)c1cc(-c2cccc(CN3CCC(CC(=O)O)CC3)c2)cc2c1OCC2)C(=O)O` [Compound 4, (S)-2-[(3-{5-[3-(4-Carboxymethyl-piperidin-1-ylmethyl)-phenyl]-2,3-dihydro-benzofuran-7-sulfonylamino}-thiophene-2-carbonyl)-amino]-5-guanidino-pentanoic acid], the pIC50 was 7.14 and the inhibition at 3 µM is 80%. As to `N=C(N)NCCC[C@H](NC(=O)c1sccc1NS(=O)(=O)c1cc(-c2cccc(CN3CCN(c4ccncc4)CC3)c2)cc2c1OCC2)C(=O)O` [Compound 28, (S)-5-Guanidino-2-[(3-{5-[3-(4-pyridin-4-yl-piperazin-1-ylmethyl)-phenyl]-2,3-dihydro-benzofuran-7-sulfonylamino}-thiophene-2-carbonyl)-amino]-pentanoic acid], the pIC50 is 6.67 and the inhibition at 3 µM came to 96%. Further, the inhibition at 30 µM (30 μM compound) was 100%. As to `N=C(N)NCCC[C@H](NC(=O)c1sccc1NS(=O)(=O)c1cc(-c2cccc(CN3CCNCC3)c2)cc2c1OCC2)C(=O)O` [Compound 33, (S)-5-Guanidino-2-({3-[5-(3-piperazin-1-ylmethyl-phenyl)-2,3-dihydro-benzofuran-7-sulfonylamino]-thiophene-2-carbonyl}-amino)-pentanoic acid], the pIC50 was 6.44 and the inhibition at 3 µM came out at 81%. In addition, the inhibition at 30 µM (30 μM compound) was determined as 100%. As for `N=C(N)NCCC[C@H](NC(=O)c1sccc1NS(=O)(=O)c1cc(-c2ccccc2CN2CCN(Cc3ccccn3)CC2)cc2c1OCC2)C(=O)O` [Compound 16, (S)-5-Guanidino-2-[(3-{5-[2-(4-pyridin-2-ylmethyl-piperazin-1-ylmethyl)-phenyl]-2,3-dihydro-benzofuran-7-sulfonylamino}-thiophene-2-carbonyl)-amino]-pentanoic acid], the inhibition at 3 µM came out at 64%. Besides, under “30 μM compound”, the inhibition at 30 µM is 95%.

Take `N=C(N)NCCC[C@H](NC(=O)c1sccc1NS(=O)(=O)c1cc(-c2ccccc2CN2CCN(Cc3ccncc3)CC2)cc2c1OCC2)C(=O)O` [Compound 17, (S)-5-Guanidino-2-[(3-{5-[2-(4-pyridin-4-ylmethyl-piperazin-1-ylmethyl)-phenyl]-2,3-dihydro-benzofuran-7-sulfonylamino}-thiophene-2-carbonyl)-amino]-pentanoic acid]: the inhibition at 3 µM stood at 56%. Besides, the “Screen (% inhibition at 30 μM)” value (30 μM compound, 30 µM) was 94%. Turning to `Cc1cc(CNCc2cccc(-c3cc4c(c(S(=O)(=O)Nc5ccsc5C(=O)N[C@@H](CCCNC(=N)N)C(=O)O)c3)OCC4)c2)no1` [Compound 48, (S)-5-Guanidino-2-({3-[5-(3-{[(5-methyl-isoxazol-3-ylmethyl)-amino]-methyl}-phenyl)-2,3-dihydro-benzofuran-7-sulfonylamino]-thiophene-2-carbonyl}-amino)-pentanoic acid], the pIC50 is 7.27 and the inhibition at 3 µM was found to be 86%. Besides, the inhibition at 30 µM (30 μM compound) is 99%. Take `N=C(N)NCCC[C@H](NC(=O)c1sccc1NS(=O)(=O)c1cc(-c2cccc(CN3CCC(C(=O)O)CC3)c2)cc2c1OCC2)C(=O)O` [Compound 3, 1-(3-{7-[2-((S)-1-Carboxy-4-guanidino-butylcarbamoyl)-thiophen-3-ylsulfamoyl]-2,3-dihydro-benzofuran-5-yl}-benzyl)-piperidine-4-carboxylic acid]: the pIC50 is 6.85 and the inhibition at 3 µM was determined as 89%.

As to `N=C(N)NCCC[C@H](NC(=O)c1sccc1NS(=O)(=O)c1cc(-c2ccccc2CNCc2ccc(O)nc2)cc2c1OCC2)C(=O)O` [Compound 49, (S)-5-Guanidino-2-({3-[5-(2-{[(6-hydroxy-pyridin-3-ylmethyl)-amino]-methyl}-phenyl)-2,3-dihydro-benzofuran-7-sulfonylamino]-thiophene-2-carbonyl}-amino)-pentanoic acid], the inhibition at 3 µM turned out to be 52%. On to `N=C(N)NCCC[C@H](NC(=O)c1sccc1NS(=O)(=O)c1cc(-c2ccccc2CNCc2cccnc2)cc2c1OCC2)C(=O)O` [Compound 9, (S)-5-Guanidino-2-({3-[5-(2-{[(pyridin-3-ylmethyl)-amino]-methyl}-phenyl)-2,3-dihydro-benzofuran-7-sulfonylamino]-thiophene-2-carbonyl}-amino)-pentanoic acid], for which the pIC50 is 5.52. In addition, the inhibition at 30 µM (30 μM compound) was determined as 97%. Consider `N=C(N)NCCC[C@H](NC(=O)c1sccc1NS(=O)(=O)c1cc(-c2ccccc2CNCc2cn[nH]c2)cc2c1OCC2)C(=O)O` [Compound 54, (S)-5-Guanidino-2-({3-[5-(2-{[(1H-pyrazol-4-ylmethyl)-amino]-methyl}-phenyl)-2,3-dihydro-benzofuran-7-sulfonylamino]-thiophene-2-carbonyl}-amino)-pentanoic acid], for which the inhibition at 3 µM worked out at 70%. For the compound `N=C(N)NCCC[C@H](NC(=O)c1sccc1NS(=O)(=O)c1cc(-c2ccccc2CN2CCN(c3ccccn3)CC2)cc2c1OCC2)C(=O)O` [Compound 14, (S)-5-Guanidino-2-[(3-{5-[2-(4-pyridin-2-yl-piperazin-1-ylmethyl)-phenyl]-2,3-dihydro-benzofuran-7-sulfonylamino}-thiophene-2-carbonyl)-amino]-pentanoic acid], the inhibition at 3 µM turned out to be 67%. Also, for the setting “30 μM compound”, the inhibition at 30 µM came out at 100%. With `N=C(N)NCCC[C@H](NC(=O)c1sccc1NS(=O)(=O)c1cc(-c2cccc(CNCc3ccc(O)nc3)c2)cc2c1OCC2)C(=O)O` [Compound 43, (S)-5-Guanidino-2-({3-[5-(3-{[(6-hydroxy-pyridin-3-ylmethyl)-amino]-methyl}-phenyl)-2,3-dihydro-benzofuran-7-sulfonylamino]-thiophene-2-carbonyl}-amino)-pentanoic acid], the inhibition at 3 µM is 82%. Consider `N=C(N)NCCC[C@H](NC(=O)c1sccc1NS(=O)(=O)c1cc(-c2cccc(CN3CCN(c4cccnc4)CC3)c2)cc2c1OCC2)C(=O)O` [Compound 13, (S)-5-Guanidino-2-[(3-{5-[3-(4-pyridin-3-yl-piperazin-1-ylmethyl)-phenyl]-2,3-dihydro-benzofuran-7-sulfonylamino}-thiophene-2-carbonyl)-amino]-pentanoic acid], for which the pIC50 is 6.23. In addition, under “30 μM compound”, the inhibition at 30 µM is 100%.

For the compound `Cc1[nH]ncc1CCCNCc1ccccc1-c1cc2c(c(S(=O)(=O)Nc3ccsc3C(=O)N[C@@H](CCCNC(=N)N)C(=O)O)c1)OCC2` [Compound 46, (S)-5-Guanidino-2-({3-[5-(2-{[3-(5-methyl-1H-pyrazol-4-yl)-propylamino]-methyl}-phenyl)-2,3-dihydro-benzofuran-7-sulfonylamino]-thiophene-2-carbonyl}-amino)-pentanoic acid], the inhibition at 3 µM was 65%. In the case of `N=C(N)NCCC[C@H](NC(=O)c1sccc1NS(=O)(=O)c1cccc(NCc2csc(C3CCNCC3)n2)c1)C(=O)O` [Compound 56, (S)-5-guanidino-2-[(3-{3-[(2-piperidin-4-yl-thiazol-4-ylmethyl)-amino]-benzenesulfonylamino}-thiophene-2-carbonyl)-amino]-pentanoic acid], the inhibition at 3 µM was determined as 57%. Moreover, under “30 μM compound”, the inhibition at 30 µM worked out at 89%.

For orientation: inhibition means the change of the read-out against control, counted positive when it falls. By pIC50 is commonly meant the negative decadic logarithm of the IC50, by convention in mol/L.
